A word on the IC50: it is the concentration at which inhibition is half-maximal.

The target in the assay is EGFR (L858R/T790M/C797S) kinase (Homo sapiens, UniProt P00533, C797S/L858R/T790M). Description: Kinase activity assay against EGFR(L858R/T790M/C797S) kinase at ATP Km concentration (33P-ATP, filter-binding). In kind it is biochemical. The conditions noted are these: 10 concentrations, 20 min preincubation, 2 h reaction at room temperature. As to the method: The biological activity screening of the compounds will be determined repeatedly at 10 concentrations.
Chain of EGFR (L858R/T790M/C797S) kinase (P00533 25-1210 T790M/C797S/L858R): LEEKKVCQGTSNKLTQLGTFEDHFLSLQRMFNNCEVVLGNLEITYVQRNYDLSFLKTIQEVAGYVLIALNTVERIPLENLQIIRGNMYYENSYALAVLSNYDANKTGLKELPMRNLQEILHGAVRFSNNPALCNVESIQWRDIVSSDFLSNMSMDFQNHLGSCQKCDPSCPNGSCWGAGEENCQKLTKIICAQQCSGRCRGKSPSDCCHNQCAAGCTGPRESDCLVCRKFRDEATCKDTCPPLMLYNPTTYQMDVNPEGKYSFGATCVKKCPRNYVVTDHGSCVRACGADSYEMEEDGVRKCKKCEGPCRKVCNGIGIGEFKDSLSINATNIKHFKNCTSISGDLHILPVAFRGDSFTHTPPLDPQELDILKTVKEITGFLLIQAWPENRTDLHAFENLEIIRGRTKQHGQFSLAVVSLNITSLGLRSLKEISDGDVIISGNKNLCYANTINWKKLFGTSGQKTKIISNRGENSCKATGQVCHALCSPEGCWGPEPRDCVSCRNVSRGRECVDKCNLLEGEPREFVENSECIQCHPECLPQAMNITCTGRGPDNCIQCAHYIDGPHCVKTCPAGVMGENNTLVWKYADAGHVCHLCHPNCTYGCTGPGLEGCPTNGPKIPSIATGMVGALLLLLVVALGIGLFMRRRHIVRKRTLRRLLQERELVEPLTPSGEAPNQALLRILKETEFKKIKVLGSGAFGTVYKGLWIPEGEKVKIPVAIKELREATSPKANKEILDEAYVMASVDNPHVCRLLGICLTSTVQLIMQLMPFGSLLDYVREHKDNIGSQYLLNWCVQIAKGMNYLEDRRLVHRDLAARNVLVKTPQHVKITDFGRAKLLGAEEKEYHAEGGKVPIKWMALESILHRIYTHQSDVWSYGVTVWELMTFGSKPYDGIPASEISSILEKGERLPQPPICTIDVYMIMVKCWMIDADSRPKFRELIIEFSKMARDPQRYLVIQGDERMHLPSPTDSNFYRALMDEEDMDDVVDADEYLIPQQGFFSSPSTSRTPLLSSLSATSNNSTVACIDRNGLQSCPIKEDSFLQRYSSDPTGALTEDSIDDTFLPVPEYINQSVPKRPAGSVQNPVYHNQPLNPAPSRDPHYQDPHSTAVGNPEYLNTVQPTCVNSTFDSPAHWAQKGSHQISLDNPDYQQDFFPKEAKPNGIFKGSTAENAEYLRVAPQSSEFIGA
Each sample was prepared into a solution with a concentration of 10 mM. […]
a. Preparing basic buffer solution and quenching buffer solution for experimental kinase […]
b. Preparing compounds for experimental kinase
The test compound was dissolved in 100% dimethyl sulfoxide to a specific concentration. Integra Viaflo Assist was used to assist DMSO for (continuous) dilution.
Kinase was added to the newly prepared basic reaction buffer
Adding any desired cofactors to the substrate solution.
Acoustic technology (Echo 550; Nanoliter range) was used to feed the compounds in 100% of dimethyl sulfoxide into the kinase reaction mixture and incubated at room temperature for 20 minutes.
33P-ATP (specific activity 10 Ci/l) was added to the reaction mixture to start the reaction.
Incubated at room temperature for 2 hours
Radioactivity was detected by filter-binding method.
Kinase activity data was expressed as the percentage of remaining kinase activity in the test sample compared to the vehicle (dimethyl sulfoxide) reaction. Prism ([…] software) was used to obtain IC50 value and curve-fitting.
For the compound `[2H]C(F)(F)Oc1cc(N2C[C@H]3CN(C)C[C@H]3C2)ccc1Nc1ncc(Cl)c(Nc2ccccc2P(C)(C)=O)n1` [Compound C1], the IC50 worked out at 12.4 nM.
`[2H]C(F)(F)Oc1cc(N2CC3CC(C2)N3)ccc1Nc1ncc(Cl)c(Nc2ccccc2P(C)(C)=O)n1` [Compound C2] came in with an IC50 of 16.6 nM.
The compound `[2H]C(F)(F)Oc1cc(N2CC3CC(C2)N3C)ccc1Nc1ncc(Cl)c(Nc2ccccc2P(C)(C)=O)n1` [Compound C3] yielded an IC50 of 130 nM.
For `[2H]C(F)(F)Oc1cc(N2C[C@H]3CNC[C@H]3C2)ccc1Nc1ncc(Cl)c(Nc2ccccc2P(C)(C)=O)n1` [Compound C4], the IC50 stood at 107 nM.
The compound `[2H]C(F)(F)Oc1cc(N2C3CC2CN(C)C3)ccc1Nc1ncc(Cl)c(Nc2ccccc2P(C)(C)=O)n1` [Compound C5] had an IC50 of 321 nM.
With `[2H]C(F)(F)Oc1cc(N2CC3CCCNC3C2)ccc1Nc1ncc(Cl)c(Nc2ccccc2P(C)(C)=O)n1` (centres unmarked) [Compound C6], the IC50 was determined as 178 nM.
`[2H]C(F)(F)Oc1cc(-n2cc3c(n2)CNC3)ccc1Nc1ncc(Cl)c(Nc2ccccc2P(C)(C)=O)n1` [Compound C7] gave an IC50 of 22.3 nM.
With `[2H]C(F)(F)Oc1cc(-n2cc3c(n2)CN(C)C3)c(C)cc1Nc1ncc(Cl)c(Nc2ccccc2P(C)(C)=O)n1` [Compound C9] the figure was 181 nM.
With `[2H]C(F)(F)Oc1cc(-n2ncc3c2CN(C)C3)c(C)cc1Nc1ncc(Cl)c(Nc2ccccc2P(C)(C)=O)n1` [Compound C10], the IC50 came out at 1850 nM.
In the case of `[2H]C(F)(F)Oc1cc(N2CC3CCN(C)C3C2)ccc1Nc1ncc(Cl)c(Nc2ccccc2P(C)(C)=O)n1` (centres unmarked) [Compound C11] it was 17.6 nM.
In the case of `[2H]C(F)(F)Oc1cc(N2CC3CCNC3C2)ccc1Nc1ncc(Cl)c(Nc2ccccc2P(C)(C)=O)n1` (centres unmarked) [Compound C12] it was 74.7 nM; in that of `[2H]C(F)(F)Oc1cc(N2C3CNCC2C3)ccc1Nc1ncc(Cl)c(Nc2ccccc2P(C)(C)=O)n1` [Compound C13], 16.6 nM; in that of `[2H]C(F)(F)Oc1cc(-n2cc3c(n2)CN(C)C3)ccc1Nc1ncc(Cl)c(Nc2ccccc2P(C)(C)=O)n1` [Compound C14], 13.7 nM.
For the compound `[2H]C(F)(F)Oc1cc(N2C[C@H]3COC[C@H]3C2)ccc1Nc1ncc(Cl)c(Nc2ccccc2P(C)(C)=O)n1` [Compound C20], the IC50 came to 69.6 nM.
With `CCc1cc(Nc2ncc(Br)c(Nc3ccc4nccnc4c3P(C)(C)=O)n2)c(OC)cc1N1C[C@H]2CN(C)C[C@H]2C1` [Compound C22] the figure was 0.3 nM; with `COc1cc2c(cc1Nc1ncc(Cl)c(Nc3ccccc3P(C)(C)=O)n1)CCCN2CCN1CCN(C)CC1` [Compound C23], 20.5 nM; with `COc1cc2c(cc1Nc1ncc(Cl)c(Nc3ccccc3P(C)(C)=O)n1)CCCN2C(=O)CN1CCN(C)CC1` [Compound C24], 19.5 nM.
The compound `COc1cc2c(cc1Nc1ncc(Cl)c(Nc3ccccc3P(C)(C)=O)n1)CCCN2CC(=O)N1CCN(C)CC1` [Compound C25] yielded an IC50 of 803 nM.
In the case of `CCc1cc(Nc2nc(Nc3ccc4nccnc4c3P(C)(C)=O)c3ccccc3n2)c(OC)cc1N1C[C@H]2CN(C)C[C@H]2C1` [Compound C27] it was 204 nM; in that of `CCc1cc(Nc2nc(Nc3ccc4nccnc4c3P(C)(C)=O)c3cccnc3n2)c(OC)cc1N1C[C@H]2CN(C)C[C@H]2C1` [Compound C28], 803 nM.

The values above are taken from patent publication US20230026840A1, “COMPOUND USED AS EGFR KINASE INHIBITOR AND USE THEREOF” (TYK MEDICINES, INC., priority 2019, published 2023).
